From patent US12336980B2, “Dosing regimen for a selective S1P1 receptor agonist” (Vanda Pharmaceuticals Inc., priority 2014, dated 2025)

Tested on: circulating total lymphocyte count
Experiment: Total lymphocyte count by hemocytometry
Assay type: in vivo, human
Conditions: for total lymphocyte count, mean percentage change from baseline (±SD): Day 3; for total lymphocyte count, decrease from baseline: Day 6
Description: The enrolled subjects came to the study center for each treatment period on Day −2 and participated in a run-in (all study procedures performed without study drug administration) on Day −1. On Day 1, subjects were randomized to one of the two possible sequences of the two up-titration regimens A and B (ratio 1:1). On Day 1, all subjects received placebo; the first study drug administration (or its matching placebo) occurred on Day 2. Regimen A consisted of the novel up-titration regimen: ponesimod was administered once daily (o.d.) orally at a dose of 2 mg on Day 2 and Day 3, 3 mg on Day 4 and Day 5, 4 mg on Day 6 and Day 7, 5 mg on Day 8, 6 mg on Day 9, 7 mg on Day 10, 8 mg on Day 11, 9 mg on Day 12, 10 mg on Day 13 and Day 14, and 20 mg on Day 15. The reference regimen (regimen B) was based on previous studies (Olsson T. et al., Oral ponesimod in relapsing-remitting multiple sclerosis: a randomised phase II trial. J Neurol Neurosurg Psychiatry. 2014; 85 (11): 1198-1208; and Vaclavkova A. et al., Oral ponesimod in patients with chronic plaque psoriasis: a randomised, double-blind, placebo-controlled phase 2 trial. Lancet. 2014; 384 (9959): 2036-2045) and consisted of an o.d. oral administration of ponesimod at a dose of 10 mg for 7 days (i.e., from Day 2 to Day 8) and 20 mg on Day 9. From Day 10 to Day 15 subjects received o.d. the matching placebo. In the placebo group (1:1 sex ratio), subjects received placebo from Day 1 to Day 15. All treatments were administered at the same time in the morning (fasted condition) with approximately 240 mL of water. Blood samples of about 3 mL were collected in ethylene di-amine tetra acetic acid tubes at pre-dose and 3 h after study drug administration from Day 1 to Day 15 in each treatment period. After centrifugation, plasma was transferred into a polypropylene tube and stored at −21° C. (±5° C.) pending analysis. Plasma concentrations of ponesimod were determined using a validated liquid chromatography coupled to tandem mass spectrometry assay with a lower limit of quantification of 1 ng/mL (Brossard P. et al., Pharmacokinetics and pharmacodynamics of ponesimod, a selective S1 P1 receptor modulator, in the first-in-human study. British journal of clinical pharmacology. 2013; 76 (6): 888-896). Trough samples were taken on Day −1, Day 3, Day 6, Day 9, Day 12, and Day 15 of each treatment period and at EOFP and EOS to assess total lymphocyte count by hemocytometry. Cardiodynamic and pharmacodynamic data are expressed as mean±SD. Repeated measure one-way ANOVAs followed by Tukey's multiple-comparisons tests were used to perform inter-group (i.e., placebo vs. regimen A vs. regimen B) comparisons. Student's t-tests were employed to perform intra-group (baseline vs. treatment) comparisons. Differences were considered to be statistically significant at p <0.05. SAS® version 9.2 (SAS Institute, Cary, NC, USA) was used for the statistical analysis and descriptive statistics of clinical data.

Which “recovery of individual total lymphocyte count” value (at EOFP and EOS, normal range i.e. 80% of baseline) does the source give for `CCC/N=C1\S/C(=C\c2ccc(OC[C@H](O)CO)c(Cl)c2)C(=O)N1c1ccccc1C` [ponesimod, (R)-5-[3-chloro-4-(2,3-dihydroxy-propoxy)-benz[Z]ylidene]-2-([Z]-propylimino)-3-o-tolyl-thiazolidin-4-one] here?
Its value is “returned to within the normal range”.

What about the “total lymphocyte count, mean percentage change from baseline (±SD)” value (regimen A) of the same compound?
Its value is −11.6±10.2%.

What about the “total lymphocyte count, decrease from baseline” value (regimen A) of the same compound?
Its value is −15.0±14.4%.

And the “total lymphocyte count, decrease following the last dose of 10 mg” value (regimen A, Day 15 before administration of the dose of 20 mg)?
Its value is −50.8±12.1%.

What about the “total lymphocyte count, mean percentage change from baseline (±SD)” value (regimen B) of the same compound?
The value was −28.9±12.2%.

What about the “total lymphocyte count, decrease from baseline” value (regimen B) of the same compound?
Its value is −46.5±12.3%.

What about the “total lymphocyte count, decrease following the last dose of 10 mg” value (regimen B, Day 9 before administration of the dose of 20 mg) of the same compound?
Its value is −52.3±11.0%.
